Laboratory results published in patent publication US5599791A, “Amides of antibiotic GE 2270 factors” (Gruppo Lepetit SPA, priority 1991, dated 1997).

Columns and labels:
[1] = system: Strep. faecalis L149 ATCC 7080; assay: MIC, microbroth dilution; assay type: cell-based, Streptococcus faecalis; settings: inocula 10^4 to 10^5 CFU/ml, Iso-Sensitest broth, 18-24 h, 37° C.
Description: (§1) MIC for Propionibacterium aches, and Bacteroides fragilis are determined by agar dilution (inocula 10^4 /10^5 CFU/spot). MIC for other organisms are determined by microbroth dilution (inocula 10^4 to 10^5 CFU/ml). Incubation times are 18-24 h, except for Haemophilus influenzae, P. acnes, B. fragilis (48 h). All organisms are incubated at 37° C.; H. influenzae is incubated in a 5% CO2 atmosphere, anaerobes in an anaerobic gas mixture. Media used are: Iso-Sensitest broth (Oxoid) (Staphylococci, Streptococcus faecalis, Escherichia coli, Proteus vulgaris; brain heart infusion broth (Difco)+1% Supplement C (Difco) (H. influenzae); The minimal inhibitory concentrations (MIC, microgram/ml) for some microorganisms are reported below in Table VII.

[2] = system: Prop. acnes L1014 ATCC 6919; assay: MIC, agar dilution; assay type: cell-based, P. acnes; settings: inocula 10^4 /10^5 CFU/spot, 48 h, 37° C., anaerobic gas mixture
Description: as §1

[3] = system: Bact. fragilis L1010 ATCC 23745; assay: MIC, agar dilution; assay type: cell-based, Bacteroides fragilis; settings: inocula 10^4 /10^5 CFU/spot, 48 h, 37° C., anaerobic gas mixture
Description: as §1

[4] = system: Haemophilus Influenzae type B; assay: MIC, microbroth dilution; assay type: cell-based; settings: brain heart infusion broth +1% Supplement C, 48 h, 37° C., 5% CO2
Description: as §1

[5] = system: Staph. aureus L165 Tour; assay: MIC, microbroth dilution; assay type: cell-based; settings: inocula 10^4 to 10^5 CFU/ml, Iso-Sensitest broth, 18-24 h, 37° C.
Description: as §1

[6] = system: Staph. epidermidis L147 ATCC 12228; assay: MIC, microbroth dilution; assay type: cell-based; settings: inocula 10^4 to 10^5 CFU/ml, Iso-Sensitest broth, 18-24 h, 37° C.
Description: as §1

[7] = system: Staph. haemolyticus L602; assay: MIC, microbroth dilution; assay type: cell-based; settings: inocula 10^4 to 10^5 CFU/ml, Iso-Sensitest broth, 18-24 h, 37° C.
Description: as §1

[8] = system: Strep. pneumoniae L44 UC41; assay: MIC, microbroth dilution; assay type: cell-based; settings: inocula 10^4 to 10^5 CFU/ml, 18-24 h, 37° C.
Description: as §1

[9] = system: Esch. coli L47 SKF 12140; assay: MIC, microbroth dilution; assay type: cell-based, Escherichia coli; settings: inocula 10^4 to 10^5 CFU/ml, Iso-Sensitest broth, 18-24 h, 37° C.
Description: as §1

[10] = system: Prot. vulgaris ATCC 881; assay: MIC, microbroth dilution; assay type: cell-based, Proteus vulgaris; settings: inocula 10^4 to 10^5 CFU/ml, Iso-Sensitest broth, 18-24 h, 37° C.
Description: as §1

SMILES	MIC [1] [microgram/ml]	MIC [2] [microgram/ml]	MIC [3] [microgram/ml]	MIC [4] [microgram/ml]	MIC [5]	MIC [6]	MIC [7] [microgram/ml]	MIC [8] [microgram/ml]	MIC [9] [microgram/ml]	MIC [10] [microgram/ml]
CNC(=O)CC1NC(=O)c2nc(sc2COC)C(C(C)C)NC(=O)c2csc(n2)-c2ccc(-c3nc(C(=O)NCCNCCC(=O)O)cs3)nc2-c2csc(n2)-c2csc(n2)C(C(O)c2ccccc2)NC(=O)CNC(=O)c2nc1sc2C (stereo not drawn) [Compound 38]	16	0.25	> 128	> 128	32 microgram/ml	32 microgram/ml	64	> 128	> 128	> 128
CNC(=O)CC1NC(=O)c2nc(sc2COC)C(C(C)C)NC(=O)c2csc(n2)-c2ccc(-c3nc(C(=O)NCCSCCC(=O)O)cs3)nc2-c2csc(n2)-c2csc(n2)C(C(O)c2ccccc2)NC(=O)CNC(=O)c2nc1sc2C (stereo not drawn) [Compound 39]	≤ 0.13	≤ 0.13	8	1	0.13 microgram/ml	0.25 microgram/ml	2	4	> 128	> 128
CNC(=O)CC1NC(=O)c2nc(sc2COC)C(C(C)C)NC(=O)c2csc(n2)-c2ccc(-c3nc(C(=O)NCCOCCC(=O)O)cs3)nc2-c2csc(n2)-c2csc(n2)C(C(O)c2ccccc2)NC(=O)CNC(=O)c2nc1sc2C (stereo not drawn) [Compound 41]	≤ 0.13	≤ 0.13	4	1	0.25 microgram/ml	0.5 microgram/ml	1	2	> 128	> 128
CNC(=O)CC1NC(=O)c2nc(sc2COC)C(C(C)C)NC(=O)c2csc(n2)-c2ccc(-c3nc(C(=O)NCCCCCC(=O)O)cs3)nc2-c2csc(n2)-c2csc(n2)C(C(O)c2ccccc2)NC(=O)CNC(=O)c2nc1sc2CO (stereo not drawn) [Compound 42]	0.13	0.016	> 128	4	0,13 microgram/ml	0,13 microgram/ml	0.5	1	> 128	> 128
Cc1sc2nc1C(=O)NCC(=O)NC(C(O)c1ccccc1)c1nc(cs1)-c1nc(cs1)-c1nc(-c3nc(C(=O)NCCCCCC(=O)O)cs3)ccc1-c1nc(cs1)C(=O)NC(C(C)C)c1nc(cs1)C(=O)NC2CC(N)=O (stereo not drawn) [Compound 43]	0.13	0.016	> 128	> 128	0.13 microgram/ml	0.5 microgram/ml	0.5	0.5	> 128	> 128
CNC(=O)CC1NC(=O)c2nc(sc2CO)C(C(C)C)NC(=O)c2csc(n2)-c2ccc(-c3nc(C(=O)NCCCCCC(=O)O)cs3)nc2-c2csc(n2)-c2csc(n2)C(C(O)c2ccccc2)NC(=O)CNC(=O)c2nc1sc2C (stereo not drawn) [Compound 44]	0.06	0.016	> 128	> 128	0.13 microgram/ml	0.5 microgram/ml	1	1	> 128	> 128
